“Also recorded” adds a separate entry of the source.
Key:
gastrocnemius muscle = test: Glucose uptake ex vivo into isolated muscle of treated ob/ob mice; type: in vivo, mouse; conditions: ob/ob mice treated 8 days; presence of insulin
ob/ob mice [1] = test: Oral ZAG in drinking water to ob/ob mice: body weight, rectal temperature, urinary glucose excretion; type: in vivo, mouse
Description: Obese (ob/ob) mice (average weight 65 g) were bred in a colony, and were kept in an air conditioned room at 22+2° C. with ad libitum feeding of a rat and mouse breeding diet (Special Diet Services, Witham, UK) and tap water. […] Animals were grouped (n=5) to receive either ZAG/PBS (50 μg day^−1), or PBS in their drinking water, the experiment was repeated three times after a power analysis was performed. […] The ZAG was replaced every 48 h. […] The dose of ZAG was chosen to be the same as that previously administered i.v. (1), so that a direct comparison could be made, between the two routes. Body weight, food and water intake, urinary glucose excretion, and body temperature, determined by the use of a rectal thermometer (RS Components, Northants, UK), were measured daily. A glucose tolerance test was performed on day 3. Animals were fasted for 12 h, followed by oral administration of glucose (1 gkg^−1 in a volume of 100 μl by gavage). Blood samples were removed from the tail vein at 15, 30, 60 and 120 min and used for the measurement of glucose. Urinary glucose was measured by collecting 0.5 ml urine and testing glucose concentration using a Boots glucose monitor. After 8 days of treatment the animals were terminated by cervical dislocation, tissues were removed and rapidly frozen in liquid nitrogen, and maintained at −80° C. Future work would be to repeat this work in diet-induced animals as alternative to a model with gene alteration, although previous studies have shown the ob/ob mouse to be a good indicator of potential human treatments. Animal studies were conducted under Home Office Licence according to the UKCCCR Guidelines for the care and use of laboratory animals.

[2] = tested on: white and brown adipocytes; test: Glucose uptake ex vivo into white and brown adipocytes of treated ob/ob mice; type: in vivo, mouse; conditions: ob/ob mice treated 8 days; absence and presence of insulin (10 nM)
Description: Single cell suspensions of white and brown adipocytes were obtained by incubation of minced epididymal subcutaneous and visceral WAT and BAT for 2 and 2.5 h, respectively, with Krebs-Ringer bicarbonate (KRBB) containing 1.5 mgml^−1 collagenase and 4% BSA under 95% oxygen-5% CO2 at 37° C. Adipocytes were washed twice in 1 ml KRBB, pH7.2, and then incubated for 10 min at room temperature in 0.5 ml KRBB, containing 18.5 MBq 2-[1-^14C] deoxy-D-glucose (2-DG), together with non-radioactive 2-DG, to give a final concentration of 0.1 mM, in the absence or presence of insulin (10 nM). Uptake was terminated by addition of 1 ml ice-cold KRBB without glucose. Adipocytes were washed three times with 1 ml KRBB and lysed by the addition of 0.5 ml 1M NaOH. The uptake of 2-[1-^14C] DG was determined by liquid scintillation counting.

ob/ob mice [3] = test: Oral glucose tolerance test in ob/ob mice after 3 days of oral ZAG; type: in vivo, mouse; conditions: oral ZAG + propanolol 40 mgkg^−1, day 3
Description: Animals were grouped (n=5) to receive either ZAG/PBS (50 μg day^−1), or PBS in their drinking water, the experiment was repeated three times after a power analysis was performed. […] The ZAG was replaced every 48 h. One group of mice receiving ZAG were also administered propanolol (40 mgkg^−1, p.o.) daily. The dose of ZAG was chosen to be the same as that previously administered i.v. (1), so that a direct comparison could be made, between the two routes. Body weight, food and water intake, urinary glucose excretion, and body temperature, determined by the use of a rectal thermometer (RS Components, Northants, UK), were measured daily. A glucose tolerance test was performed on day 3. Animals were fasted for 12 h, followed by oral administration of glucose (1 gkg^−1 in a volume of 100 μl by gavage). Blood samples were removed from the tail vein at 15, 30, 60 and 120 min and used for the measurement of glucose. Urinary glucose was measured by collecting 0.5 ml urine and testing glucose concentration using a Boots glucose monitor. After 8 days of treatment the animals were terminated by cervical dislocation, tissues were removed and rapidly frozen in liquid nitrogen, and maintained at −80° C. […] Animal studies were conducted under Home Office Licence according to the UKCCCR Guidelines for the care and use of laboratory animals.

ob/ob mice [4] = test: Serum metabolite and insulin levels in ob/ob mice after ZAG administration; type: in vivo, mouse; conditions: ob/ob mice, oral ZAG + propanolol
Description: FCS (foetal calf serum) was from Biosera (Sussex, UK), while DMEM (Dulbecco's modified Eagles Medium) was from PAA (Somerset, UK) and Freestyle medium was purchased from Invitrogen (Paisley, UK). Hybond A nitrocellulose membranes and peroxidise—conjugated rabbit anti-mouse antibody were from GE Healthcare (Bucks, UK), while enhanced chemiluminescene (ECL) development kits were purchased from Thermo Scientific (Northumberland, UK). Mouse monoclonal antibodies to full-length human and mouse ZAG were from Santa Cruz Biotechnology (Santa Cruz, Calif. A mouse insulin ELISA kit was purchased from DRG (Marburg, Germany) and glucose measurements in both urine and plasma were made using a Boots (Nottingham, UK) glucose kit. L-[U-^14C] tyrosine (sp.act 16.7 GBqmmol^−1) was purchased from Perkin Elmer Ltd, (Cambridge, UK), while 2-[1-^14C] deoxy-D-glucose (sp.act 1.85 GBqmmol^−1) was from American Radiolabeled Chemicals (Cardiff, UK).
Obese (ob/ob) mice (average weight 65 g) were bred in a colony, and were kept in an air conditioned room at 22+2° C. with ad libitum feeding of a rat and mouse breeding diet (Special Diet Services, Witham, UK) and tap water. […] Animals were grouped (n=5) to receive either ZAG/PBS (50 μg day^−1), or PBS in their drinking water, the experiment was repeated three times after a power analysis was performed. […] The ZAG was replaced every 48 h. One group of mice receiving ZAG were also administered propanolol (40 mgkg^−1, p.o.) daily. The dose of ZAG was chosen to be the same as that previously administered i.v. (1), so that a direct comparison could be made, between the two routes. Body weight, food and water intake, urinary glucose excretion, and body temperature, determined by the use of a rectal thermometer (RS Components, Northants, UK), were measured daily. A glucose tolerance test was performed on day 3. Animals were fasted for 12 h, followed by oral administration of glucose (1 gkg^−1 in a volume of 100 μl by gavage). Blood samples were removed from the tail vein at 15, 30, 60 and 120 min and used for the measurement of glucose. Urinary glucose was measured by collecting 0.5 ml urine and testing glucose concentration using a Boots glucose monitor. After 8 days of treatment the animals were terminated by cervical dislocation, tissues were removed and rapidly frozen in liquid nitrogen, and maintained at −80° C. Future work would be to repeat this work in diet-induced animals as alternative to a model with gene alteration, although previous studies have shown the ob/ob mouse to be a good indicator of potential human treatments. Animal studies were conducted under Home Office Licence according to the UKCCCR Guidelines for the care and use of laboratory animals.

murine ZAG = test: Western blotting of murine ZAG in serum and WAT of ob/ob mice; type: in vivo, mouse; conditions: ob/ob mice, oral ZAG + propanolol 40 mgkg^−1
Description: Tissues were thawed, washed in PBS and lysed in Phosphosafe™ Extraction reagent for 5 min at room temperature, followed by sonication at 4° C. Cytosolic protein (5-20 ug) formed by centrifugation at 18,000 g for 5 min at 4° C., was resolved on 12% SDS PAGE by electrophoresis at 180V for about 1 h. To determine ZAG in serum 30 μl samples containing 20 μg total protein were electrophoresed as above. Protein was transferred to 0.45 μm nitrocellulose membranes, which had been blocked with 5% (w/v) non-fat dried milk (Marvel) in Tris-buffered saline, pH 7.5, at 4° C. overnight. Membranes were washed for 15 min in 0.1% Tween 20 buffered saline prior to adding the primary antibodies. Both primary and secondary antibodies were used at a dilution of 1:1000. Incubation was for 1 h at room temperature, and development was by ECL. Blots were scanned by a densitometer to quantify differences.

3T3 L1 adipocytes = conditions: cited from earlier work
[5] = oral ZAG + propanolol 40 mgkg^−1

Row | SMILES | effect of propanolol on ZAG-induced glucose uptake ex vivo into gastrocnemius muscle (gastrocnemius muscle) | effect of propanolol on weight gain of mice administered PBS (ob/ob mice [1]; PBS + propanolol) | effect of propanolol on ZAG-induced weight loss (ob/ob mice [1]; oral ZAG 50 μg daily + propanolol 40 mg/kg po daily) | effect of propanolol on ZAG-induced weight loss (ob/ob mice [1]; oral ZAG + propanolol 20 mgkg^−1) | effect of propanolol on ZAG induced increase in rectal temperature (ob/ob mice [1]; [5]) | effect of propanolol on ZAG induced reduction in urinary excretion of glucose (ob/ob mice [1]; [5]) | effect of propanolol on ZAG-induced glucose uptake into BAT [2] | effect of propanolol on ZAG-induced stimulation of glucose uptake ex vivo into epididymal, subcutaneous and visceral adipocytes [2] | effect of propanolol on ZAG-induced increase in insulin sensitivity (ob/ob mice [3]) | effect of propanolol on ZAG-reduced peak blood glucose concentration / improvement in glucose disposal in glucose tolerance test (ob/ob mice [3]) | effect of propanolol on decrease in serum glucose after ZAG administration (ob/ob mice [4]) | effect of propanolol on decrease in serum insulin levels after ZAG administration (ob/ob mice [4]) | murine ZAG in the serum of animals given ZAG and co-administered propanolol (murine ZAG) | levels of ZAG mRNA (3T3 L1 adipocytes)
1 | CC(C)NC[C@H](O)COc1cccc2ccccc12 (racemic) [propanolol] | attenuated | no effect | blocked; also recorded: attenuated | did not prevent the weight loss | completely attenuated | completely attenuated | attenuated | attenuated | blocked; also recorded: attenuated | blocked; also recorded: attenuated | completely attenuated | completely attenuated | no increase; also recorded: attenuated | 
2 | C[C@H](Cc1ccc(OCC(=O)O)cc1)NC[C@H](O)c1cccc(Cl)c1 [BRL37344] |  |  |  |  |  |  |  |  |  |  |  |  |  | increase

Reference: patent publication US10172917B2, “Targeted oesophageal administration of ZN-α2-glycoproteins (ZAG), methods and formulations thereof” (ASTON UNIVERSITY, priority 2012, dated 2019)
